The values below are quoted from earlier work in US12280031B2, “Teriflunomide topical pharmaceutical compositions” (APRAMITHA INNOVATIONS PRIVATE LIMITED, priority 2018, dated 2025).

One series deals with patients. Particulars: oral teriflunomide, dose-dependent.

The term pKa denotes the pH at which an ionisable group is half protonated. Turning to `C/C(O)=C(\C#N)C(=O)Nc1ccc(C(F)(F)F)cc1` [Teriflunomide, (Z)-2-cyano-3-hydroxy-but-2-enoic acid-(4′-trifluoromethylphenyl)-amide], the pKa is given as 5.2. Further, where the note is “water”, the solubility in water entry is on record as “very slightly soluble”. For the same molecule, in the series on patients, the adverse effects result is “nausea, diarrhoea, hair thinning/decreased hair density, and elevated alanine aminotransferase (ALT) levels”.
